Source: patent publication US20070275967A1, “Pyrazolinols” (BAYER CROPSCIENCE AKTIENGESELLSCHAFT, priority 2003, published 2007)
Values belong to the molecule of their own block, whether it stands above or below them.

Key:
[1] = logP determination by HPLC on reversed-phase column (EEC Directive 79/831 Annex V.A8); type: physicochemical; settings: acidic range (pH 2.3), marked a), 0.1% aqueous phosphoric acid/acetonitrile gradient, reversed-phase C 18, 43° C.; for chromatographic logP: reversed-phase C18 HPLC column
Description: The logP values given in the table were determined in accordance with EEC Directive 79/831 Annex V.A8 by HPLC (High Performance Liquid Chromatography) on a reversed-phase column (C 18). Temperature: 43° C. (a) Mobile phases for the determination in the acidic range (pH 2.3): 0.1% aqueous phosphoric acid, acetonitrile; linear gradient from 10% acetonitrile to 90% acetonitrile—the corresponding measurement results in table 1 are marked a). (b) Mobile phases for the determination in the neutral range (pH 7.5): 0.01-molar aqueous phosphate buffer solution, acetonitrile; linear gradient from 10% acetonitrile to 90% acetonitrile—the corresponding measurement results in table 1 are marked b). Calibration was carried out using unbranched alkan-2-ones (having 3 to 16 carbon atoms) with known logP values (determination of the logP values by the retention times using linear interpolation between two successive alkanones).

[2] = test system: green peach aphid (Myzus persicae); experiment: Myzus test (spray treatment); type: in vivo; settings: for activity (kill of aphids): Chinese cabbage disks infested by all stages of Myzus persicae, sprayed, result in words; for pest or weed control at 500 g/ha: Myzus persicae, 120 h, active compound concentration 500 g/ha, after 5 d, spray treatment, read-out: Kill rate in % after 5 d
Description: Myzus Test (Spray Treatment) [table] To produce a suitable preparation of active compound, 1 part by weight of active compound is mixed with the stated amounts of solvents and emulsifier, and the concentrate is diluted with emulsifier-containing water to the desired concentration. Disks of Chinese cabbage (Brassica pekinensis) which are infested by all stages of the green peach aphid (Myzus persicae) are sprayed with a preparation of active compound of the desired concentration. After the desired period of time, the activity in % is determined. 100% means that all aphids have been killed; 0% means that none of the aphids have been killed.

[3] = test system: greenhouse red spidermite (Tetranychus urticae); experiment: Tetranychus test (OP-resistant/spray treatment); type: in vivo; settings: for pest or weed control at 500 g/ha / pest or weed control at 100 g/ha: Tetranychus urticae, 120 h, after 5 d, OP-resistant, spray treatment, read-out: Kill rate in % after 5 d; for pest or weed control at 500 g/ha: active compound concentration 500 g/ha; for activity (kill of spidermites): bean leaf disks infested by all stages of Tetranychus urticae (OP-resistant), sprayed, result in words; for pest or weed control at 100 g/ha: active compound concentration 100 g/ha
Description: Tetranychus Test (OP-Resistant/Spray Treatment)
To produce a suitable preparation of active compound, 1 part by weight of active compound is mixed with the stated amounts of solvents and emulsifier, and the concentrate is diluted with emulsifier-containing water to the desired concentration.
Disks of bean leaves (Phaseolus vulgaris) which are infested by all stages of the greenhouse red spidermite (Tetranychus urticae) are sprayed with a preparation of active compound of the desired concentration.
After the desired period of time, the activity in % is determined. 100% means that all spidermites have been killed; 0% means that none of the spidermites have been killed.

[4] = test system: larvae of the mustard beetle (Phaedon cochleariae); experiment: Phaedon test (spray treatment); type: in vivo; settings: for activity (kill of beetle larvae): Chinese cabbage disks sprayed, populated with Phaedon cochleariae larvae, result in words; for pest or weed control at 500 g/ha / pest or weed control at 100 g/ha: Phaedon cochleariae, 168 h, after 7 d, spray treatment, read-out: Kill rate in % after 7 d; for pest or weed control at 500 g/ha: active compound concentration 500 g/ha; for pest or weed control at 100 g/ha: active compound concentration 100 g/ha
Description: Phaedon Test (Spray Treatment) [table] To produce a suitable preparation of active compound, 1 part by weight of active compound is mixed with the stated amounts of solvents and emulsifier, and the concentrate is diluted with emulsifier-containing water to the desired concentration. Disks of Chinese cabbage (Brassica pekinensis) are sprayed with a preparation of active compound of the desired concentration and, once they have dried, populated with larvae of the mustard beetle (Phaedon cochleariae). After the desired period of time, the activity in % is determined. 100% means that all beetle larvae have been killed; 0% means that none of the beetle larvae have been killed.

[5] = test system: caterpillars of the armyworm (Spodoptera frugiperda); experiment: Spodoptera frugiperda test (spray treatment); type: in vivo; settings: for pest or weed control at 500 g/ha / pest or weed control at 100 g/ha: Spodoptera frugiperda, 168 h, after 7 d, spray treatment, read-out: Kill rate in % after 7 d; for pest or weed control at 500 g/ha: active compound concentration 500 g/ha; for activity (kill of caterpillars): corn leaf disks sprayed, populated with Spodoptera frugiperda caterpillars, result in words; for pest or weed control at 100 g/ha: active compound concentration 100 g/ha
Description: Spodoptera Frugiperda Test (Spray Treatment) [table] To produce a suitable preparation of active compound, 1 part by weight of active compound is mixed with, the stated amounts of solvents and emulsifier, and the concentrate is diluted with emulsifier-containing water to the desired concentration. Disks of corn leaves (Zea mays) are sprayed with a preparation of active compound of the desired concentration and, after they have dried, populated with caterpillars of the armyworm (Spodoptera frugiperda). After the desired period of time, the activity in % is determined. 100% means that all caterpillars have been killed; 0% means that none of the caterpillars have been killed.

SMILES: CCC1=NN(C(=O)Nc2ccc(OC(F)(F)F)cc2)C(O)(C(F)(F)F)C1 (stereo not drawn) [Example 12]
chromatographic logP [1]: 3.74
activity (kill of aphids) [2]: good activity
pest or weed control at 500 g/ha [2]: 100%

SMILES: CCC1=NN(C(=S)Nc2ccccc2Cl)C(O)(C(F)(F)F)C1 (stereo not drawn) [Example 15]
chromatographic logP [1]: 3.85
activity (kill of aphids) [2]: good activity
pest or weed control at 500 g/ha [2]: 90%

SMILES: CC(C)CC1=NN(C(=S)Nc2ccc(OC(F)(F)F)cc2)C(O)(C(F)(F)F)C1 (stereo not drawn) [Example 22]
chromatographic logP [1]: 4.42
pest or weed control at 500 g/ha [3]: 90%
activity (kill of spidermites) [3]: good activity

SMILES: COc1ccccc1NC(=S)N1N=C(C(C)C)CC1(O)C(F)(F)F (stereo not drawn) [Example 30]
chromatographic logP [1]: 4.23
activity (kill of beetle larvae) [4]: good activity
pest or weed control at 500 g/ha [4]: 100%
pest or weed control at 500 g/ha [3]: 90%
activity (kill of spidermites) [3]: good activity

SMILES: Cc1ccccc1NC(=S)N1N=C(C(C)C)CC1(O)C(F)(F)F (stereo not drawn) [Example 32]
chromatographic logP [1]: 4.1
activity (kill of beetle larvae) [4]: good activity
pest or weed control at 500 g/ha [4]: 100%
pest or weed control at 500 g/ha [5]: 100%
activity (kill of caterpillars) [5]: good activity

SMILES: CCC1=NN(C(=S)Nc2ccccc2F)C(O)(C(F)(F)F)C1 (stereo not drawn) [Example 40]
chromatographic logP [1]: 3.51
activity (kill of aphids) [2]: good activity
pest or weed control at 500 g/ha [2]: 90%

SMILES: CC(C)C1=NN(C(=S)NC2CCCCC2)C(O)(C(F)(F)F)C1 (stereo not drawn) [Example 44]
chromatographic logP [1]: 4.94
activity (kill of beetle larvae) [4]: good activity
pest or weed control at 500 g/ha [4]: 100%
pest or weed control at 500 g/ha [5]: 100%
activity (kill of caterpillars) [5]: good activity
pest or weed control at 500 g/ha [3]: 90%
activity (kill of spidermites) [3]: good activity

SMILES: CCC1=NN(C(=S)Nc2ccc(Cl)cc2)C(O)(C(F)(F)F)C1 (stereo not drawn) [Example 53]
chromatographic logP [1]: 4.07
activity (kill of beetle larvae) [4]: good activity
pest or weed control at 500 g/ha [4]: 100%

SMILES: CCC1=NN(C(=S)NCc2ccccc2F)C(O)(C(F)(F)F)C1 (stereo not drawn) [Example 55]
chromatographic logP [1]: 3.88
activity (kill of beetle larvae) [4]: good activity
pest or weed control at 500 g/ha [4]: 100%
pest or weed control at 500 g/ha [5]: 100%
activity (kill of caterpillars) [5]: good activity
pest or weed control at 100 g/ha [3]: 90%
activity (kill of spidermites) [3]: good activity

SMILES: CCC1=NN(C(=S)NCc2ccccc2Cl)C(O)(C(F)(F)F)C1 (stereo not drawn) [Example 56]
chromatographic logP [1]: 4.25
activity (kill of beetle larvae) [4]: good activity
pest or weed control at 500 g/ha [4]: 100%
pest or weed control at 100 g/ha [3]: 90%
activity (kill of spidermites) [3]: good activity

SMILES: CC(C)(C)C1=NN(C(=S)Nc2ccccc2)C(O)(C(F)(F)F)C1 (stereo not drawn) [Example 63]
chromatographic logP [1]: 4.26
activity (kill of beetle larvae) [4]: good activity
pest or weed control at 100 g/ha [4]: 100%
pest or weed control at 100 g/ha [5]: 100%
activity (kill of caterpillars) [5]: good activity

SMILES: CC(C)(C)C1=NN(C(=S)Nc2ccc(OC(F)(F)F)cc2)C(O)(C(F)(F)F)C1 (stereo not drawn) [Example 64]
chromatographic logP [1]: 4.94
activity (kill of beetle larvae) [4]: good activity
pest or weed control at 100 g/ha [4]: 100%
pest or weed control at 100 g/ha [5]: 100%
activity (kill of caterpillars) [5]: good activity

SMILES: CC(C)(C)C1=NN(C(=S)NC2CCCCC2)C(O)(C(F)(F)F)C1 (stereo not drawn) [Example 73]
activity (kill of beetle larvae) [4]: good activity
pest or weed control at 100 g/ha [4]: 100%
pest or weed control at 100 g/ha [5]: 100%
activity (kill of caterpillars) [5]: good activity

SMILES: CC(C)(C)C1=NN(C(=S)Nc2ccc(Cl)cc2)C(O)(C(F)(F)F)C1 (stereo not drawn) [Example 74]
chromatographic logP [1]: 4.75
activity (kill of beetle larvae) [4]: good activity
pest or weed control at 100 g/ha [4]: 100%
pest or weed control at 100 g/ha [5]: 100%
activity (kill of caterpillars) [5]: good activity
pest or weed control at 100 g/ha [3]: 100%
activity (kill of spidermites) [3]: good activity

SMILES: CC(C)(C)C1=NN(C(=S)NCc2ccc(Cl)cc2)C(O)(C(F)(F)F)C1 (stereo not drawn) [Example 75]
chromatographic logP [1]: 4.9
activity (kill of beetle larvae) [4]: good activity
pest or weed control at 100 g/ha [4]: 100%
pest or weed control at 100 g/ha [5]: 100%
activity (kill of caterpillars) [5]: good activity
pest or weed control at 100 g/ha [3]: 100%
activity (kill of spidermites) [3]: good activity

SMILES: OC1(C(F)(F)F)CC(c2ccccc2)=NN1C(=S)Nc1ccc(Cl)cc1 (stereo not drawn) [Example 83]
chromatographic logP [1]: 4.58
pest or weed control at 500 g/ha [5]: 100%
activity (kill of caterpillars) [5]: good activity

SMILES: CC1=NN(C(=S)Nc2ccc(OC(F)(F)F)cc2)C(O)(C(F)(F)F)C1 (stereo not drawn) [Example 106]
chromatographic logP [1]: 3.37
pest or weed control at 100 g/ha [3]: 100%
activity (kill of spidermites) [3]: good activity

More lines, main results first:

logP [1]: logP = 2.70^a)
SMILES: CC1=NN(C(=O)Nc2ccc(F)cc2)C(O)(C(F)(F)F)C1 (stereo not drawn) [Example 117]

chromatographic logP [1]: 3.97
SMILES: CC1=NN(C(=S)Nc2ccc(Cl)cc2Cl)C(O)(C(F)(F)F)C1 (stereo not drawn) [Example 118]
pest or weed control at 100 g/ha [3]: 90%
activity (kill of spidermites) [3]: good activity

logP [1]: logP = 3.49^a)
SMILES: CC1=NN(C(=S)Nc2ccc(C)cc2)C(O)(C(F)(F)F)C1 (stereo not drawn) [Example 119]

logP [1]: logP = 3.05^a)
SMILES: CC1=NN(C(=S)Nc2ccccc2F)C(O)(C(F)(F)F)C1 (stereo not drawn) [Example 120]

logP [1]: logP = 4.45^a)
SMILES: CC1=NN(C(=S)Nc2ccc(C(C)(C)C)cc2)C(O)(C(F)(F)F)C1 (stereo not drawn) [Example 121]

logP [1]: logP = 3.53^a)
SMILES: CC1=NN(C(=S)NCc2ccccc2F)C(O)(C(F)(F)F)C1 (stereo not drawn) [Example 124]

logP [1]: logP = 3.87^a)
SMILES: CC1=NN(C(=S)NCc2ccccc2Cl)C(O)(C(F)(F)F)C1 (stereo not drawn) [Example 125]

chromatographic logP [1]: 4.24
SMILES: CC1=NN(C(=S)NCCc2ccc(Cl)cc2)C(O)(C(F)(F)F)C1 (stereo not drawn) [Example 126]
pest or weed control at 100 g/ha [3]: 90%
activity (kill of spidermites) [3]: good activity

logP [1]: logP = 4.03^a)
SMILES: CC(C)(C)C1=NN(C(=S)Nc2ccc(Cl)cc2)C(O)(C(Cl)(Cl)Cl)C1 (stereo not drawn) [Example 129]

logP [1]: logP = 2.72^a)
SMILES: CC(C)(C)C1=NN(C(=S)NCc2ccc(Cl)cc2)C(O)(C(Cl)(Cl)Cl)C1 (stereo not drawn) [Example 130]

logP [1]: logP = 5.32^a)
SMILES: CC(C)(C)C1=NN(C(=S)NCc2ccc(Cl)cc2)C(O)(C(F)(F)C(F)(F)F)C1 (stereo not drawn) [Example 132]

logP [1]: logP = 4.77^a)
SMILES: CC(C)(C)C1=NN(C(=O)Nc2ccc(Cl)cc2)C(O)(C(F)(F)C(F)(F)F)C1 (stereo not drawn) [Example 134]

logP [1]: logP = 5.19^a)
SMILES: CC(C)(C)C1=NN(C(=S)Nc2ccc(Cl)cc2)C(O)(C(F)(F)C(F)(F)F)C1 (stereo not drawn) [Example 135]

logP [1]: logP = 5.57^a)
SMILES: CC(C)(C)C1=NN(C(=S)Nc2ccc(Cl)cc2)C(O)(C(F)(F)C(F)(F)C(F)(F)F)C1 (stereo not drawn) [Example 138]

logP [1]: logP = 5.20^a)
SMILES: CC(C)(C)C1=NN(C(=O)Nc2ccc(Cl)cc2)C(O)(C(F)(F)C(F)(F)C(F)(F)F)C1 (stereo not drawn) [Example 140]

logP [1]: logP = 4.50^a)
SMILES: CC(C)(C)C1=NN(C(=S)Nc2ccc(Cl)cc2)C(O)(C(F)F)C1 (stereo not drawn) [Example 142]

logP [1]: logP = 3.72^a)
SMILES: CC(C)(C)C1=NN(C(=O)Nc2ccc(Cl)cc2)C(O)(C(F)F)C1 (stereo not drawn) [Example 144]
